From patent publication US20100144755A1 (Glaxo Group Limited, priority 2006, published 2010)
“Also recorded” adds a separate entry of the source.

System: influx of neutrophils to the lung in LPS-challenged rats
Test: Rat LPS neutrophilia model
Format: in vivo
Conditions: LPS aerosol, intratracheal dosing, in at least one of the range of conditions tested, significance p<0.05
Protocol: Rat LPS Neutrophilia Model
The effect of compounds on the influx of neutrophils to the lung in LPS-challenged rats is evaluated as follows. The test compound is suspended in one of the following solutions: 0.5% tween 80/PBS, 0.5% tween 80/saline, 10% EtOH/saline (with pH adjusted to 2.0, or 8.0 with HCl, or unadjusted), Saline @pH 2.0, 6.5 or 8.0, 0.5% Tragacanth, 1% DMSO/20% Encapsin/Saline, or acidified 5% Tragacanth. The suspension process may be aided by the use of a glass homogenizer. For intratracheal administration, the animals are anesthetized with inhaled isoflurane and placed in a supine position, the trachea is intubated with a steel gavage needle (1.5 inch, 22 gauge, small ball) or a Penn-Century Microsprayer Aerosolizer (model IA-1B) and 200 ul of dosing solution is delivered. The animals are visually monitored during the recovery process, which typically occurs within two minutes. It is noted that the test compounds may be alternatively administered via the microsprayer in a dry powder blend with a suitable excipient, such as lactose.
Rats treated with compound or vehicle (15 min-24 hours pretreatment) are exposed to an LPS aerosol (100 ug/ml) for 15 min. Four hours later the rats are euthanized with pentobarbital (100 mg/kg, i.p.) and the airways are lavaged with 5 washes of 5 ml of phosphate buffered saline. The harvested cells are stained (Diffquick) and counted to determine total and differential cell data. […] Inhibition of neutrophil levels relative to no compound controls is calculated based on the differential counts.
The data is obtained as % inhibition using a particular concentration and pretreat time.

SMILES | inhibition of neutrophilia
CNCCNc1nc(-c2cc(C(=O)NC3CCCC3)ccc2C)c2ccc(=O)n(-c3c(F)cccc3F)c2n1 [Example 58, N-cyclopentyl-3-(8-(2,6-difluorophenyl)-2-{[2-(methylamino)ethyl]amino}-7-oxo-7,8-dihydropyrido[2,3-d]pyrimidin-4-yl)-4-methylbenzamide] | statistically significant inhibition
CNC1CCN(c2nc(-c3cc(C(=O)NC(C)C)ccc3C)c3ccc(=O)n(-c4c(F)cccc4F)c3n2)CC1 [113(b), 3-{8-(2,6-difluorophenyl)-2-[4-(methylamino)-1-piperidinyl]-7-oxo-7,8-dihydropyrido[2,3-d]pyrimidin-4-yl}-4-methyl-N-(1-methylethyl)benzamide] | statistically nonsignificant inhibition
Cc1ccc(C(=O)NCc2ccccc2)cc1-c1nc(NCc2ncc[nH]2)nc2c1ccc(=O)n2-c1c(F)cccc1F [Example 77, 3-{8-(2,6-difluorophenyl)-2-[(1H-imidazol-2-ylmethyl)amino]-7-oxo-7,8-dihydropyrido[2,3-d]pyrimidin-4-yl}-4-methyl-N-(phenylmethyl)benzamide] | statistically significant inhibition
CCN(CC)CCCNc1nc(-c2cc(C(=O)NC(C)C)ccc2C)c2ccc(=O)n(-c3c(F)cccc3F)c2n1 [118(b), 3-[2-{[3-(diethylamino)propyl]amino}-8-(2,6-difluorophenyl)-7-oxo-7,8-dihydropyrido[2,3-d]pyrimidin-4-yl]-4-methyl-N-(1-methylethyl)benzamide] | statistically nonsignificant inhibition
Cc1ccc(C(=O)NC2CC2)cc1-c1nc(N2CCC(N)CC2)nc2c1ccc(=O)n2-c1c(F)cccc1F [Example 22, 3-[2-(4-amino-1-piperidinyl)-8-(2,6-difluorophenyl)-7-oxo-7,8-dihydropyrido[2,3-d]pyrimidin-4-yl]-N-cyclopropyl-4-methylbenzamide] | statistically significant inhibition
Cc1ccc(C(=O)NCC(C)C)cc1-c1nc(N2CCC(N3CCC(C)CC3)CC2)nc2c1ccc(=O)n2-c1c(F)cccc1F [Example 168, 3-[8-(2,6-difluorophenyl)-2-(4-methyl-1,4′-bipiperidin-1′-yl)-7-oxo-7,8-dihydropyrido[2,3-d]pyrimidin-4-yl]-4-methyl-N-(2-methylpropyl)benzamide] | inactive
Cc1ccc(C(=O)Nc2ccc(F)cc2)cc1-c1nc(NCCN(C)C(=O)OC(C)(C)C)nc2c1ccc(=O)n2-c1c(F)cccc1F [Example 95, 1,1-dimethylethyl(2-{[8-(2,6-difluorophenyl)-4-(5-{[(4-fluorophenyl)amino]carbonyl}-2-methylphenyl)-7-oxo-7,8-dihydropyrido[2,3-d]pyrimidin-2-yl]amino}ethyl)methylcarbamate] | statistically nonsignificant inhibition
CNCCNc1nc(-c2cc(C(=O)Nc3ccc(F)cc3)ccc2C)c2ccc(=O)n(-c3c(F)cccc3F)c2n1 [Example 60, 3-(8-(2,6-difluorophenyl)-2-{[2-(methylamino)ethyl]amino}-7-oxo-7,8-dihydropyrido[2,3-d]pyrimidin-4-yl)-N-(4-fluorophenyl)-4-methylbenzamide] | statistically significant inhibition
CCCNC(=O)c1ccc(C)c(-c2nc(NCCNC)nc3c2ccc(=O)n3-c2c(F)cccc2F)c1 [56(d), 3-(8-(2,6-difluorophenyl)-2-{[2-(methylamino)ethyl]amino}-7-oxo-7,8-dihydropyrido[2,3-d]pyrimidin-4-yl)-4-methyl-N-propylbenzamide] | statistically significant inhibition
CCC(C)NC(=O)c1ccc(C)c(-c2nc(NCCCN(CC)CC)nc3c2ccc(=O)n3-c2c(F)cccc2F)c1 (centres unmarked) [Example 162, 3-[2-{[3-(diethylamino)propyl]amino}-8-(2,6-difluorophenyl)-7-oxo-7,8-dihydropyrido[2,3-d]pyrimidin-4-yl]-4-methyl-N-(1-methylpropyl)benzamide] | statistically nonsignificant inhibition
Cc1ccc(C(=O)NCC(F)(F)F)cc1-c1nc(N2CCC(N3CCC(C)CC3)CC2)nc2c1ccc(=O)n2-c1c(F)cccc1F [Example 172, 3-[8-(2,6-difluorophenyl)-2-(4-methyl-1,4′-bipiperidin-1′-yl)-7-oxo-7,8-dihydropyrido[2,3-d]pyrimidin-4-yl]-4-methyl-N-(2,2,2-trifluoroethyl)benzamide] | inactive
CCN(CC)CCCNc1nc(-c2cc(C(=O)NCC3CCCCC3)ccc2C)c2ccc(=O)n(-c3c(F)cccc3F)c2n1 [Example 135, N-(cyclohexylmethyl)-3-[2-{[3-(diethylamino)propyl]amino}-8-(2,6-difluorophenyl)-7-oxo-7,8-dihydropyrido[2,3-d]pyrimidin-4-yl]-4-methylbenzamidetrifluoroacetate] | inactive
CCN(CC)CCCNc1nc(-c2cc(C(=O)NC3CCCC3)ccc2C)c2ccc(=O)n(-c3c(F)cccc3F)c2n1 [Example 125, N-cyclopentyl-3-[2-{[3-(diethylamino)propyl]amino}-8-(2,6-difluorophenyl)-7-oxo-7,8-dihydropyrido[2,3-d]pyrimidin-4-yl]-4-methylbenzamide] | statistically nonsignificant inhibition
CCN(CC)CCCNc1nc(-c2cc(C(=O)N(C)C)ccc2C)c2ccc(=O)n(-c3c(F)cccc3F)c2n1 [Example 120, 3-[2-{[3-(diethylamino)propyl]amino}-8-(2,6-difluorophenyl)-7-oxo-7,8-dihydropyrido[2,3-d]pyrimidin-4-yl]-N,N,4-trimethylbenzamide] | statistically nonsignificant inhibition; also recorded: inactive
CCNC(=O)c1ccc(C)c(-c2nc(NCCCN(CC)CC)nc3c2ccc(=O)n3-c2c(F)cccc2F)c1 [Example 129, 3-[2-{[3-(diethylamino)propyl]amino}-8-(2,6-difluorophenyl)-7-oxo-7,8-dihydropyrido[2,3-d]pyrimidin-4-yl]-N-ethyl-4-methylbenzamide] | statistically nonsignificant inhibition
Cc1ccc(C(=O)NC2CCC2)cc1-c1nc(N2CCC(N3CCC(C)CC3)CC2)nc2c1ccc(=O)n2-c1c(F)cccc1F [Example 175, N-cyclobutyl-3-[8-(2,6-difluorophenyl)-2-(4-methyl-1,4′-bipiperidin-1′-yl)-7-oxo-7,8-dihydropyrido[2,3-d]pyrimidin-4-yl]-4-methylbenzamide] | inactive
Cc1ccc(C(=O)NC2CCCC2)cc1-c1nc(N2CCC(N)CC2)nc2c1ccc(=O)n2-c1c(F)cccc1F [Example 70, 3-[2-(4-amino-1-piperidinyl)-8-(2,6-difluorophenyl)-7-oxo-7,8-dihydropyrido[2,3-d]pyrimidin-4-yl]-N-cyclopentyl-4-methylbenzamide] | statistically nonsignificant inhibition
Cc1ccc(C(=O)Nc2ccc(F)cc2)cc1-c1nc(N2CCC(N)CC2)nc2c1ccc(=O)n2-c1c(F)cccc1F [Example 72, 3-[2-(4-amino-1-piperidinyl)-8-(2,6-difluorophenyl)-7-oxo-7,8-dihydropyrido[2,3-d]pyrimidin-4-yl]-N-(4-fluorophenyl)-4-methylbenzamide] | statistically significant inhibition
CNCCNc1nc(-c2cc(C(=O)NCC3CC3)ccc2C)c2ccc(=O)n(-c3c(F)cccc3F)c2n1 [Example 4] | statistically significant inhibition
Cc1ccc(C(=O)Nc2ccc(F)cc2)cc1-c1nc(N2CCC(N3CCC(C)CC3)CC2)nc2c1ccc(=O)n2-c1c(F)cccc1F [Example 174, 3-[8-(2,6-difluorophenyl)-2-(4-methyl-1,4′-bipiperidin-1′-yl)-7-oxo-7,8-dihydropyrido[2,3-d]pyrimidin-4-yl]-N-(4-fluorophenyl)-4-methylbenzamide] | inactive
CCN(CC)CCCNc1nc(-c2cc(C(=O)NC)ccc2C)c2ccc(=O)n(-c3c(F)cccc3F)c2n1 [Example 119, 3-[2-{[3-(diethylamino)propyl]amino}-8-(2,6-difluorophenyl)-7-oxo-7,8-dihydropyrido[2,3-d]pyrimidin-4-yl]-N,4-dimethylbenzamide] | statistically significant inhibition
Cc1ccc(C(=O)NC(C)C)cc1-c1nc(N2CCC(N3CCC(C)CC3)CC2)nc2c1ccc(=O)n2-c1c(F)cccc1F [163(c), 3-[8-(2,6-difluorophenyl)-2-(4-methyl-1,4′-bipiperidin-1′-yl)-7-oxo-7,8-dihydropyrido[2,3-d]pyrimidin-4-yl]-4-methyl-N-(1-methylethyl)benzamide] | statistically nonsignificant inhibition
Cc1ccc(C(=O)NC(C)C)cc1-c1nc(N(C)CCCN(C)C)nc2c1ccc(=O)n2-c1c(F)cccc1F [Example 34, 3-{8-(2,6-difluorophenyl)-2-[[3-(dimethylamino)propyl](methyl)amino]-7-oxo-7,8-dihydropyrido[2,3-d]pyrimidin-4-yl}-4-methyl-N-(1-methylethyl)benzamide] | statistically significant inhibition
